Source: publication PMC12735778, “Purification and Biochemical Characterization of Polyphenol Oxidase from Falcaria vulgaris Bernh” (Molecules, 2025)
Marks after values point to notes of the source that are not given here.

Assays:
[1] = system: PPO from persimmon fruits; design: method as in doi:10.1016/j.foodchem.2003.07.022; settings: substance as substrate, ref [47], cited from earlier work; for Vmax: asterisked values
Medlar PPO = system: Medlar PPO; design: method as in doi:10.1016/S0308-8146(01)00359-4; settings: substance as substrate, ref [51], cited from earlier work; for Vmax: asterisked values
PPO from Sarali plum [2] = system: PPO from Sarali plum; design: method as in doi:10.1007/s11694-024-02663-y; settings: substance as substrate; ref [39]; cited from earlier work
PPO from Chinese parsley = system: PPO from Chinese parsley; design: method as in PMID 30263491; settings: substance as substrate; ref [50]; cited from earlier work
[3] = system: polyphenol oxidase (PPO) from sickleweed; assay: Substrate kinetics of sickleweed PPO (Lineweaver-Burk); type: biochemical, Falcaria vulgaris Bernh.; settings: substance as substrate; optimum pH and temperature
Protocol: (§1) PPO activity was determined by measuring the increase in absorbance at 496 nm for 4-methylcatechol and 500 nm for catechol and DHPPA with a UV–Vis spectrophotometer. PPO activity was detected by the increment in absorbance in 1 min by adding 100 μL of the substrate (100 mM), 100 μL of 3-Methyl-2-benzothiazolinone hydrazone (MBTH, 10 mM), 20 μL of Dimethylformamide (DMF), 680 μL of 50 mM pH 5.0 acetate buffer, and finally 100 μL of the enzyme. The blank contains all solutions, excluding the enzyme. The enzyme unit is defined as the amount of the enzyme producing an absorbance increase of 0.001 per minute in 1 mL of the reaction mixture. The specific activity of PPO was defined as units per mg of protein [64].
To determine substrate specificity, catechol (0.2–20 mM), 4-methylcatechol (0.2–20 mM), and DHPPA (0.2–20 mM) concentrations were studied. Enzyme activity was carried out at optimum temperature and pH. The kinetic data were analyzed in terms of 1/activity (1/V) and 1/substrate concentration ([S]). The Michaelis-Menten constant (Km) and the maximum velocity (Vmax) were computed by plotting the Lineweaver-Burk graph. The catalytic efficiency ratio (Vmax/Km) was used as a criterion to evaluate substrate specificity.

[4] = system: PPO from Laccaria laccata (LacPPO); design: method as in doi:10.1111/jfbc.12605; settings: substance as substrate; ref [43]; cited from earlier work
PPO from butter lettuce = system: PPO from butter lettuce; design: method as in doi:10.1016/j.foodchem.2007.07.068; settings: substance as substrate; ref [38]; cited from earlier work
PPO from Sarali plum [5] = system: PPO from Sarali plum; design: method as in doi:10.1007/s11694-024-02663-y; settings: substrate 4-methylcatechol; ref [39]; cited from earlier work
PPO from tea leaf = system: PPO from tea leaf; design: method as in doi:10.1007/s11694-019-00264-8; settings: substrate catechol; ref [40]; cited from earlier work
[6] = system: polyphenol oxidase (PPO) from sickleweed; assay: Inhibition of PPO purified from sickleweed, 4-methylcatechol substrate; type: biochemical, Falcaria vulgaris Bernh.; settings: substrate 4-methylcatechol; for Inhibition type / Ki: Lineweaver-Burk plots; for IC50: optimum conditions
Protocol: as §1
The common inhibitors of PPO were preferred to study the inhibitory effects on PPO activity. For the 4-methylcatechol substrate, sodium metabisulphite (0.005–0.1 mM), citric acid (5–60 mM), and ascorbic acid (0.005–0.04 mM) inhibitors were utilized to determine enzyme activities under optimum conditions. The half maximal inhibitory concentration (IC50), which halves the enzyme activity, was calculated using the graph of percentage residual activity (%) versus inhibitor concentration (enzyme activity in the absence of inhibitor was accepted as one hundred percent). Then, enzyme activities were studied at five substrate concentrations and three inhibitor concentrations under optimum conditions. The Lineweaver-Burk graphs were drawn by calculating 1/V and 1/[S] values with the obtained data. From these graphs, inhibition constant (Ki) values were calculated for each inhibitor, and the inhibition type was determined.

PPO from purslane = system: PPO from purslane; design: method as in doi:10.1590/1678-457x.03216; settings: substrate catechol; ref [21]; cited from earlier work
[7] = system: PPO from broccoli florets; design: method as in doi:10.1016/j.foodchem.2007.05.012; settings: substrate 4-methylcatechol; ref [61]; cited from earlier work

Row | SMILES | Vmax [1] | Km [1] [mM] | Vmax (Medlar PPO) | Km (Medlar PPO) [mM] | Km (PPO from Sarali plum [2]) [mM] | Vmax (PPO from Sarali plum [2]) [EU·mL^−1·min^−1] | Km (PPO from Chinese parsley) [mM] | Vmax (PPO from Chinese parsley) [EU·mL^−1·min^−1] | Km [3] [mM] | Vmax [3] | Km [4] [mM] | Km (PPO from butter lettuce) [mM] | Vmax (PPO from butter lettuce) [EU·mL^−1·min^−1] | IC50 (PPO from tea leaf) [µM] | Inhibition type (PPO from tea leaf) | Ki (PPO from tea leaf) [µM] | Inhibition type [6] | Ki [6] [µM] | IC50 [6] [µM] | Inhibition type (PPO from purslane) | also measured
1 | Cc1ccc(O)c(O)c1 [4-Methylcatechol, 4-methylcatechol] | 49.5 * μM/min | 14.6 | 130 * μM/min | 7.5 | 4.75 ± 0.66 | 2333.33 ± 288.68 | 37.4 | 1428.57 | 2 | 5000 EU·mL^−1·min^−1 | 0.4 | 1 ± 0.09 | 5405 ± 4 |  |  |  |  |  |  |  | 
2 | O=C1O[C@H]([C@@H](O)CO)C(O)=C1O [Ascorbic acid, ascorbic acid] |  |  |  |  |  |  |  |  |  |  |  |  |  | 69.3 | Competitive | 32.7 | Competitive | 10.1 | 26 | Noncompetitive | IC50 (PPO from Sarali plum [5]): 38 ± 1 µM; Inhibition type (PPO from Sarali plum [5]): Competitive; Ki (PPO from Sarali plum [5]): 9.5 µM; Ki (PPO from purslane): 360 µM; Inhibition type [7]: Noncompetitive; Ki [7]: 88 µM
3 | Oc1ccccc1O [Catechol, catechol] | 55.2 * μM/min | 12.4 | 88.0 * μM/min | 5.7 | 1.16 ± 0.12 | 914.14 ± 83.45 | 31 | 2000 | 5 | 10,000 EU·mL^−1·min^−1 | 0.25 | 3.2 ± 0.01 | 4081 ± 8 |  |  |  |  |  |  |  | 
4 | O=C(O)CC(O)(CC(=O)O)C(=O)O [Citric acid, citric acid] |  |  |  |  |  |  |  |  |  |  |  |  |  |  |  |  | Competitive | 8370 | 32000 | Uncompetitive | Ki ([6]; listed as citric acid): 8730 µM; Ki (PPO from purslane): 4470 µM; Inhibition type [7]: Noncompetitive; Ki [7]: 74 µM
5 | O=C(O)CCc1ccc(O)c(O)c1 [DHPPA, 3,4-Dihydroxyphenylpropionic acid] | 17.2 * μM/min | 12.8 | 7.2 * μM/min | 1.9 |  |  |  |  | 11.4 | 14,285.71 EU·mL^−1·min^−1 |  |  |  |  |  |  |  |  |  |  | 
6 | O=S(O)S(=O)(=O)O [Sodium metabisulfite, sodium metabisulfite] |  |  |  |  |  |  |  |  |  |  |  |  |  | 21.7 | Noncompetitive | 19.3 | Noncompetitive | 23.7 | 27 |  | 
